Laboratory results as given in publication PMC10394814, “Discovery and evaluation of active compounds from Xuanfei Baidu formula against COVID-19 via SARS-CoV-2 M^pro” (Chinese Medicine, 2023).

Key:
Omicron BA.2.3 variant = assay: Antiviral activity assay (CPE) in Vero E6 cells, Omicron BA.2.3; type: cell-based, SARS-CoV-2
Omicron BA.1.1 variant = assay: Antiviral activity assay (CPE) in Vero E6 cells, Omicron BA.1.1; type: cell-based, SARS-CoV-2

With `Cn1cnc(Cn2c(=O)[nH]/c(=N\c3cc4cn(C)nc4cc3Cl)n(Cc3cc(F)c(F)cc3F)c2=O)n1` [S-217622, reference compound] the EC50 (Omicron BA.2.3 variant) was 0.235 µM and the EC50 (Omicron BA.1.1 variant) was 0.12 µM.
